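Test compounds were applied to cells in 96-well plates for 48 hours at 5 doses. The concentration for 50% growth inhibition is given as GI50. TGI marks complete inhibition of growth.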
Assays:
Assay in all cases: NCI anticancer screen, dose series, 48 h
MDA-MB-435 = system: MDA-MB-435
OVCAR-4 ovarian = system: OVCAR-4 ovarian
HCT-15 colon = system: HCT-15 colon
IGROV1 ovarian = system: IGROV1 ovarian
SN12C renal = system: SN12C renal
LOX IMVI melanoma = system: LOX IMVI melanoma
CAKI-1 renal = system: CAKI-1 renal
HL-60(TB) leukemia = system: HL-60(TB) leukemia
HS 578T breast = system: HS 578T breast
UACC-62 melanoma = system: UACC-62 melanoma

| SMILES | GI50 (MDA-MB-435) | TGI (MDA-MB-435) | GI50 (OVCAR-4 ovarian) | TGI (OVCAR-4 ovarian) | GI50 (HCT-15 colon) | TGI (HCT-15 colon) | GI50 (IGROV1 ovarian) | TGI (IGROV1 ovarian) | GI50 (SN12C renal) | TGI (SN12C renal) | GI50 (LOX IMVI melanoma) | TGI (LOX IMVI melanoma) | GI50 (CAKI-1 renal) | TGI (CAKI-1 renal) | GI50 (HL-60(TB) leukemia) | TGI (HL-60(TB) leukemia) | GI50 (HS 578T breast) | TGI (HS 578T breast) | GI50 (UACC-62 melanoma) | TGI (UACC-62 melanoma) |
| --- | --- | --- | --- | --- | --- | --- | --- | --- | --- | --- | --- | --- | --- | --- | --- | --- | --- | --- | --- | --- |
| Cc1cc(C)c(C2CNCc3cc4c(cc32)CNCC4c2c(C)cc(C)cc2C)c(C)c1 (centres undefined) | 1.88 µg/mL | 3.84 µg/mL | 2.48 µg/mL | 6.43 µg/mL | 4.13 µg/mL | 14.2 µg/mL | 4.68 µg/mL | 18 µg/mL | 2.59 µg/mL | 9.63 µg/mL | 1.85 µg/mL | 4.31 µg/mL | 4.22 µg/mL | 13.6 µg/mL | 1.81 µg/mL | 4.3 µg/mL | 3.43 µg/mL | 13.5 µg/mL | 6.7 µg/mL | 15.4 µg/mL |
| C[CH2][Hg][S]c1ccccc1C(=O)O | 1.4 µM | 2.95 µM | 2.01 µM | 7 µM | 1.07 µM | 2.52 µM | 1.37 µM | 4.42 µM | 1.31 µM | 2.61 µM | 0.488 µM | 2.16 µM | 0.316 µM | 1.47 µM | 0.314 µM | 1.18 µM | 2.08 µM | > 100 µM | 1.36 µM | 2.98 µM |
| CC(=O)O[C@@H]1C[C@@]2(C)[C@@H]3CC=C4[C@@H](C[C@H](O)C(=O)C4(C)C)[C@]3(C)C(=O)C[C@]2(C)[C@H]1[C@@](C)(O)C(=O)/C=C/C(C)(C)OC(C)=O | – | 37.9 µM | – | > 32.3 µM | – | 12.3 µM | – | 10.2 µM | – | > 44.8 µM | – | > 33 µM | – | 0.397 µM | – | > 20.1 µM | – | > 100 µM | – | 27.9 µM |
| Nc1nc(N)c(CCCCc2ccccc2)c(N)n1 | – | > 100 µM | – | > 100 µM | – | > 100 µM | – | > 100 µM | – | > 100 µM | – | > 100 µM | – | > 100 µM | – | > 100 µM | – | > 100 µM | – | > 100 µM |
| CCc1c(C)nc2sc3c(N)ncnc3c2c1C | > 25 µM | > 25 µM | > 25 µM | > 25 µM | > 25 µM | > 25 µM | > 25 µM | > 25 µM | > 25 µM | > 25 µM | > 25 µM | > 25 µM | > 19.6 µM | > 25 µM | > 25 µM | > 25 µM | > 25 µM | > 25 µM | > 25 µM | > 25 µM |
| CC1c2ccccc2CCN1c1ccc(CO)c(Cl)c1 (centres undefined) | 17.3 µM | 53.5 µM | 0.049 µM | 2.7 µM | 13.3 µM | 53.3 µM | 0.0488 µM | 0.307 µM | 15.3 µM | > 57 µM | 22.2 µM | 49.8 µM | 3.46 µM | 50.3 µM | 21.3 µM | 70.2 µM | 21.9 µM | 70.7 µM | 0.15 µM | 14.5 µM |
| Oc1c(-c2cc(C(F)(F)F)[nH]n2)cc(Cl)c(OCc2ccc(Cl)cc2)c1-c1ccc(Cl)c(C(F)(F)F)c1 | 1.06 µM | 4.11 µM | 1.31 µM | 7.41 µM | 0.153 µM | 0.693 µM | 0.965 µM | 5.93 µM | 0.153 µM | 3.31 µM | 0.967 µM | 2.9 µM | 0.514 µM | 2.92 µM | 0.677 µM | 3.12 µM | 0.344 µM | 2.85 µM | 0.355 µM | 1.42 µM |
| COc1cc2c(cc1F)C(c1ccccc1Cl)=Nc1c(n[nH]c1C)N2 | 0.172 µM | 19.1 µM | 5.63 µM | 28.6 µM | 0.705 µM | 19.7 µM | 1.54 µM | 18 µM | 1.38 µM | 18.3 µM | 0.94 µM | 13.1 µM | 0.609 µM | 14.7 µM | 0.838 µM | 20.8 µM | 0.214 µM | 0.838 µM | 0.995 µM | 17.2 µM |
| O=Nc1c(-c2c(O)[nH]c3ncccc23)[nH]c2ccccc12 | > 100 µM | > 100 µM | 9.1 µM | > 100 µM | 3.92 µM | > 100 µM | 1.72 µM | > 100 µM | 5.86 µM | > 100 µM | 5.32 µM | > 100 µM | 1.9 µM | > 100 µM | 7.58 µM | > 100 µM | 2.71 µM | > 100 µM | – | > 100 µM |

From PubChem BioAssay (NCI)
